pKd: −log10 of the molar value.
Key:
Microglia = assay: Microglial migration to ATP in Boyden chamber; assay type: cell-based; details: 4 hrs at 37° C.
Description: FIG. 10 is a graph showing microglial migration for 4 hrs at 37° C. Control media or 100 μM ATP were used in the absence and presence of DTG or p-Br-DPG (labeled BDTG). Asterisks indicate a significant difference between ATP (p<0.001, n=5) and ATP+BDTG 20 μM (p<0.01, n=5) from DMEM. Significance was determined by one-way ANOVA followed by post-hoc Bonferroni tests.
Microglial migration was assayed using a Boyden chamber fitted with a polycarbonate membrane containing 8 μm pores. Microglia (500,000 cells) were placed in the upper chamber and control media or 100 μM ATP were added in the absence and presence of DTG, or various indicated concentrations of p-Br-DPG to the bottom chamber. Microglia were allowed to migrate for 4 hrs at 37° C., and were subsequently stained with DAPI and counted.

cortical neurons [1] = assay: Inhibition of [Ca2+]i increases evoked by acidosis (pH 6.0) in cortical neurons; assay type: cell-based, rat; details: acidosis pH 6.0, cortical neurons; for pKd: n>50, read-out: Kd (Langmuir-Hill fit) for inhibition of [Ca2+]i increases evoked by acidosis
Description: Concentration-response relationship for p-Br-DPG and DTG inhibition of [Ca^2+]i increases evoked by acidosis (pH 6.0).
(§1) The effects of sigma receptors on ischemia-induced changes in intracellular calcium concentrations were studied in cultured cortical neurons from embryonic (E18) rats. Dams were euthanatized by decapitation, uterus removed, and embryos dissected out and placed in isotonic buffer containing 137 mM NaCl, 5 mM KCl, 0.2 mM NaH2PO4, 0.2 mM KH2PO4, 5.5 mM glucose, 6 mM sucrose (pH 7.4 with NaOH). Cortex were excised and minced, and tissue digested in isotonic buffer containing 0.25% trypsin/EDTA for 10 min at 37° C. and added to 3× volume of high glucose culture media (Dulbecco's Modified Eagle Media; Invitrogen, Inc., Carlsbad, Calif.), 10% (v/v) fetal calf serum, 100 U/ml penicillin and 0.1 mg/ml streptomycin. Cells were counted on a hemocytometer, plated (0.5×10^6 cells) on 18 mm coverslips coated with poly-1-lysine, and incubated at 37° C. under a 95% air, 5% CO2 atmosphere. After 24 hr the media was replaced with Neurobasal (Invitrogen, Inc., Carlsbad, Calif.) medium supplemented with B27 (Invitrogen, Inc., Carlsbad, Calif.) and 0.5 mM 1-glutamine to limit astrocyte proliferation in the cultures. Cells were used for studies after 14-21 days in culture.
(Ringel F, et al. Lactacidosis-induced glial cell swelling depends on extracellular Ca^2+. Neurosci Lett. 2006 May 8; 398(3):306-9. Epub 2006 Feb. 15). p-Br-DPG was characterized against DTG to determine the ability to inhibit [Ca^2+]i dysregulation in cortical neurons. Cells were administered the indicated amounts of either p-BrDPhG or DTG, followed by cellular [Ca^2+]i dysregulation stimulation by acidosis (pH 6.0). […] A dashed line is superimposed, showing the acidosis results from FIG. 7 for comparison.

Sprague-Dawley rats = assay: Permanent middle cerebral artery occlusion (MCAO), infarct volume by Fluoro-Jade staining; assay type: in vivo, rat; details: sacrificed at 96 h
Description: FIG. 9 is a graph showing the data for rats after surgery for permanent middle cerebral arterial occlusion. Rats were treated as indicated at 24, 48, and 72 h and sacrificed at 96 hours. Brain sections were stained with Fluoro-Jade to determine infarct volumes.
11 adult male Sprague-Dawley rats (Harlan, Indianapolis, Ind.) weighing 300 to 350 g were housed in a climate controlled room with water and laboratory chow available ad libidum. Sprague-Dawley rats (300-350 g) were randomly assigned to 1 of 3 groups: MCAO (n=4); MCAO and DTG (n=3); or MCAO and p-Br-DPG (n=4). MCAO surgery was performed as previously reported by Vendrame et al. (Vendrame, et al., Infusion of human umbilical cord blood cells in a rat model of stroke dose-dependently rescues behavioral deficits and reduces infarct volume. Stroke. 2004 October; 35(10):2390-5. Epub 2004 Aug. 19) and originally described by Longa et al. (Longa, et al., Reversible middle cerebral artery occlusion without craniectomy in rats. Stroke. 1989 January; 20(1):84-9). […]
Rats were treated as indicated at 24, 48, and 72 hours after MCAO with vehicle (MCAO), 7.5 mg/kg N,N′-di-p-bromophenyl guanidine (p-Br-DPG) or 7.5 mg/kg 1,3 di-o-tolylguanidine (DTG). […] Stroke-induced damage was quantified using the Fluoro-Jade fluorescence to determine infarct volumes.

cortical neurons [2] = assay: Inhibition of [Ca2+]i increases evoked by chemical ischemia (sodium azide/glucose deprivation) in cortical neurons, Fura-2; assay type: cell-based, rat; details: for More effective than DTG in depressing Ca2+ dysregulation: ischemia-induced [Ca2+]i, relative to DTG set to 1
Description: Concentration-response relationship for p-Br-DPG inhibition of [Ca^2+]i increases evoked by chemical ischemia (4 mM azide, 0 glucose). […] Dashed line is fit to the data in FIG. 7, shoing p-Br-DPhG inhibition of acidosis-induced Ca^2+ elevations and is included for comparison.
as §1
The in vitro NaN3 chemical ischemia disrupts cell metabolism, which ultimately results in plasma membrane dysfunction and intracellular Ca^2+ dysregulation. Fura-2 dye was used to measure changes in intracellular Ca^2+ in the cells. Ischemia was induced in the absence or presence of the drugs to test directly the cell response to sigma receptor activation under ischemic conditions. […] The level of resulting [Ca^2+]i inhibition was compared to DTG, which was set to a relative [Ca^2+]i, level of 1 as indicated by the dashed line. […]

MCAO rats = details: cited from earlier work
[3] = higher p-Br-DPG concentrations or DTG with 100 μM ATP

| pKd (cortical neurons [1]) | pKd (cortical neurons [2]; 4 mM azide, 0 glucose, cortical neurons, n>50, read-out: Kd (Langmuir-Hill fit) for inhibition of [Ca2+]i increases evoked by chemical ischemia) | SMILES | Microglia migration (Microglia; 20 μM with 100 μM ATP, compared to DMEM) | Microglia migration (Microglia; [3]) | Effect against [Ca2+]i dysregulation compared with DTG (cortical neurons [1]) | Infarct volume relative to the MCAO group (Sprague-Dawley rats; 7.5 mg/kg at 24, 48 and 72 h after MCAO, p<0.001) | Efficacy on infarct volume compared with DTG treatment (Sprague-Dawley rats; 7.5 mg/kg each at 24, 48 and 72 h after MCAO) | More effective than DTG in depressing Ca2+ dysregulation (cortical neurons [2]) [%] | Reduction of infarct size (MCAO rats; MCAO rats (Ajmo 2006)) | Reduction of stroke damage (MCAO rats; administered 24 hours after experimental stroke) [%] |
| --- | --- | --- | --- | --- | --- | --- | --- | --- | --- | --- |
| 4.87 | 5.59 | N=C(Nc1ccc(Br)cc1)Nc1ccc(Br)cc1 [p-Br-DPG, N,N′-di-p-bromophenyl guanidine] | significantly increased microglia migration | inhibited the migration | significantly higher effect against [Ca^2+]i than DTG | significantly reduced infarct volume | slightly more efficacious than DTG treatment | ~25 |  |  |
|  |  | NC(=Nc1ccccc1)Nc1ccccc1 [DPhG] |  |  |  |  |  | ~25 |  |  |
| 3.96 |  | Cc1ccccc1NC(=N)Nc1ccccc1C [DTG, N,N′-di-o-tolyl guanidine, reference compound] |  | inhibited the migration |  |  |  |  | more than 80% | 85 |
